This is an account of results in paper PMC9697438, “Therapeutic Potential of 2-Methylquinazolin-4(3H)-one as an Antiviral Agent against Influenza A Virus-Induced Acute Lung Injury in Mice” (Molecules, 2022).

In one series the test system is H1N1 virus. Nature of the series: microbe, parasite or virus in culture. Format: cell-based, influenza A virus. Particulars: for IC50: Influenza A virus, H1N1, MDCK, 72 h.
A short description of a further series: Solubility observation. The note with it: sterile water. It counts as physicochemical.
Another series deals with neuraminidase (NA). The experiment in a line: Neuraminidase activity assay in lung homogenates of H1N1-infected mice. It counts as in vivo, BALB/c mice. On the procedure: (§1) Five-week-old healthy male BALB/c mice (n = 6 per group) were maintained in pathogen-free individual cages with free access to drinking water and sterilized food, as described previously. The mice were randomly allocated into the following groups: normal control group, H1N1 model group, C1 (2.5, 5, 10 mg/kg) treatment group, and positive control group treated with oseltamivir (20 mg/kg, positive control). Except for normal controls, the rest of mice were intranasally infected with 30 μL of diluted H1N1virus (3LD50) after light anesthesia. Negative control mice (normal group) were challenged by inhaling equal volumes (30 μL) of virus diluent as the other mice. Then, 2 h later, C1 (2.5, 5, 10 mg/kg) and Oseltamivir (20 mg/kg) dissolved in 5% CMC-Na solution were given to mice (0.1 mL/10 g) once per day (i.g.) at day 0 (D0), day 1 (D1), day 2 (D2) and day 3 (D3) after infection with H1N1 virus. […]
Viral titers were measured using neuraminidase (NA) assay kit designed to detect antiviral effects. […] A reaction mixture consisted of 10 μL lung homogenates, 70 μL detection buffer, 10 μL Mill-Q water and 10 μL NA fluorescence substrate in a 96-well plate. […] The fluorescence of the mixture was quantified at 322 nm of excitation wavelength and 450 nm of emission wavelength with a muti-mode microplate read (Waltham, VT, USA). […]

Series [1] has as its system influenza A virus nucleoprotein (NP). The experiment in a line: Immunohistochemistry of viral nucleoprotein in lung tissue of H1N1-infected mice. Format: in vivo, BALB/c mice. Particulars: C1-treated mice vs indirubin-treated mice and model group; day 4. As for the experimental part: as §1, with “mice.” for “mice. Then, 2 h later, C1 (2.5, 5, 10 mg/kg) and Oseltamivir (20 mg/kg) dissolved in 5% CMC-Na solution were given to mice (0.1 mL/10 g) once per day (i.g.) at day 0 (D0), day 1 (D1), day 2 (D2) and day 3 (D3) after infection with H1N1 virus.”
Influenza virus load, expression of NPs and ionized calcium binding adaptor molecule-1(Iba-1) were determined using IHC. […]
Figure 4 Suppression of H1N1 viral replication in vivo by C1, the experimental protocol is the same as Figure 3. (A) The NA activity in lung homogenates by fluorescence effect; (B) The expression level of INF-α in lung homogenates by ELISA; (C) The expression of NP in lung tissue, the representative IHC pathological images of the lung on day 4 post-infection, the red arrow indicates viral N protein-positive signal. […]

The subject of series [2] is ionized calcium binding adaptor molecule-1 (Iba-1). Details: species or system BALB/c mice. The note with it: mouse, in vivo.
Series [3] deals with cytokines in lung homogenates. The experiment in a line: ELISA of cytokines in lung tissue homogenates of H1N1-infected mice. Format: in vivo, BALB/c mice. Particulars: for expression level of IL-10 in lung homogenates / expression level of INF-γ in lung homogenates: C1 10 mg/kg, Os. 20 mg/kg, vs H1N1 virus group; for IL-1β level in lung homogenates / IL-6 level in lung homogenates / MCP-1 production in lung homogenates / TNF-α level in lung homogenates: C1 2.5, 5, 10 mg/kg, oseltamivir phosphate 20 mg/kg, vs model group, dose-dependent, p < 0.001, day 4. As for the experimental part: Five-week-old healthy male BALB/c mice (n = 6 per group) were maintained in pathogen-free individual cages with free access to drinking water and sterilized food, as described previously. The mice were randomly allocated into the following groups: normal control group, H1N1 model group, C1 (2.5, 5, 10 mg/kg) treatment group, and positive control group treated with oseltamivir (20 mg/kg, positive control). Except for normal controls, the rest of mice were intranasally infected with 30 μL of diluted H1N1virus (3LD50) after light anesthesia. Negative control mice (normal group) were challenged by inhaling equal volumes (30 μL) of virus diluent as the other mice. Then, 2 h later, C1 (2.5, 5, 10 mg/kg) and Oseltamivir (20 mg/kg) dissolved in 5% CMC-Na solution were given to mice (0.1 mL/10 g) once per day (i.g.) at day 0 (D0), day 1 (D1), day 2 (D2) and day 3 (D3) after infection with H1N1 virus. At the same time, normal and model groups were administered equivalent amounts of 0.5% CMC-Na in the same way. Post-infection on day 4, the mice were sacrificed to collect blood plasma, lung and liver, which were weighed.
Pulmonary tissue homogenates were collected from mice lungs by centrifugation at 4500 rpm for 20 min. BCA assay was used to quantify the total protein in the supernatant of lung homogenates. Cytokine levels of IL-1β, IL-6, TNF-α, IL-10, MCP-1, INF-γ and INF-α were determined, as instructed by the manufacturer.
Figure 5 C1-alleviated lung injury in mice after 4 days of administration (n = 6, means ± S.D.); the experiment design is the same as Figure 3. Concentration of chemokines/cytokines/interferon was measured on day 4 post-infection by ELISA in lung homogenates (n = 6). (A) IL-6; (B) IL-1β; (C) TNF-α; (D) MCP-1; (E) IL-10; (F) IFN-γ.

Series [4] deals with influenza virus H1N1 (A/FM/1/47). The note with it: for lung index: day 4, p < 0.001 vs model.
The test system of series [5] is A549 cells. Nature of the series: MTT cytotoxicity assay (TC50).
Series [6] has as its system A549 cells. The note with it: human.
In the next series the test system is hepatitis C virus. Details: method as in earlier work. The note with it: cited from earlier work.
Another series has as its system H1N1 influenza virus. The experiment in a line: H1N1-induced ALI in mice treated with EA extract: lung index, liver index, body weight, H&E. It counts as in vivo.

Converted amounts (≈) assume the structure as drawn. Where two headings read alike, the source gives them in different places.

Regarding `Cc1nc2ccccc2c(=O)[nH]1` [Compound C1, 2-Methylquinazolin-4(3H)-one], the midpoint of inhibition with H1N1 virus, the IC50, lay at 23.8 µg/mL (≈ 149 µM). Further, the solubility result in the series “Solubility observation” is on record as “soluble”. Moreover, the “NA activity in lung homogenates” value in the series on neuraminidase (NA) (C1 2.5 mg/kg, vs model control) was “no differences”. Also, in the series with neuraminidase (NA) (C1 5, 10 mg/kg, vs model group, p < 0.05), the “NA activity in lung homogenates” value was “significantly lower”. Also, the “viral N protein-positive signals in lung tissue” value in [1] is given as “fewer positive signals”. Further, in [2], the “Iba-1 positive signals in lung tissue (macrophage recruitment)” value is reported as “fewer positive signals”. In series [3], the “expression level of IL-10 in lung homogenates” value is given as “higher”, the “expression level of INF-γ in lung homogenates” value is “higher”, the “IL-1β level in lung homogenates” value is listed as “significantly reduced” and the “IL-6 level in lung homogenates” value is on record as “significantly reduced”. Besides, in series [3], the “MCP-1 production in lung homogenates” value was “significantly reduced” and the “TNF-α level in lung homogenates” value is reported as “significantly reduced”. Besides, in series [3] (after treatment with C1, ELISA), the “production of IFN-α in lung homogenates” value is “remarkably decreased”. In series [4] (C1 2.5 mg/kg i.g. once daily D0-D3, model 10.27 ± 0.50, normal 6.40 ± 0.14), this compound had a lung index of 8.85 ± 0.47 mg/g. For the same compound, the “weight rate of mice raised” value in series [4] (C1 2.5 mg/kg, days 0-4, model decreased 4.5%) is listed as 2%. The same compound had a lung index in series [4] (C1 5 mg/kg i.g. once daily D0-D3, model 10.27 ± 0.50) of 8.60 ± 0.29 mg/g. Moreover, the “weight rate of mice decreased” value in [4] (C1 5 mg/kg, days 0-4, model decreased 4.5%) is 2%. Moreover, the lung index in series [4] (C1 10 mg/kg i.g. once daily D0-D3, model 10.27 ± 0.50) was found to be 8.36 ± 0.28 mg/g. Also, the “weight rate of mice raised” value in [4] (C1 10 mg/kg, days 0-4) came out at 0.2%. Also, the “lung histological damage (H&E)” value in series [4] (mouse, in vivo) is given as “significantly less”. Besides, in series [4] (mouse, in vivo, po), the “toxicity on liver and spleen” value was “no toxicity”. Besides, the TC50 in the series on A549 cells [5] stood at 79.7 µg/mL (≈ 498 µM).

Regarding `CC1(C)C[C@H](O)C[C@@]2(C)OC(=O)C=C12` [Compound C2, loliolide], the antiviral activity entry in the series with H1N1 virus is on record as “did not exert any antiviral activity”. The compound further registered a TC50 in the series with A549 cells [6] of 26.7 µg/mL (≈ 136 µM). The “inhibition of the hepatitis C virus” value in the series with hepatitis C virus is recorded as “potent inhibitor”.

In the series with H1N1 virus, `Cc1nc2ccccc2c(=O)n1-c1ccccc1O` [Compound C3, 3-(2′-Hydroxyphenyl)-2-methyl-4(3H)-quinazolinone] returned an IC50 of 100 µg/mL (≈ 396 µM). In the series on A549 cells [5], the TC50 amounted to 106.8 µg/mL (≈ 423 µM).

For `O=C1c2cc(O)cc(O)c2CN1c1ccc(O)cc1` [Compound C4, clitocybin A], in the series on H1N1 virus, the antiviral activity entry is reported as “did not exert any antiviral activity”. The compound further returned a TC50 in the series with A549 cells [5] of 167.7 µg/mL (≈ 652 µM).

On to `CCOC(=O)C1=C[C@@H](OC(CC)CC)[C@H](NC(C)=O)[C@@H](N)C1` [Os., Oseltamivir phosphate, reference compound], for which, in series [3], the “expression level of IL-10 in lung homogenates” value is “higher”, the “expression level of INF-γ in lung homogenates” value was “higher”, the “IL-1β level in lung homogenates” value is reported as “significantly reduced” and the “IL-6 level in lung homogenates” value is given as “significantly reduced”. In addition, in series [3], the “MCP-1 production in lung homogenates” value is on record as “significantly reduced” and the “TNF-α level in lung homogenates” value is reported as “significantly reduced”. Moreover, the “weight rate of mice raised” value in [4] (Os. 20 mg/kg, days 0-4) is on record as 21.6%. Also, in series [4] (mouse, in vivo), the “lung histological damage (H&E)” value was “significantly less”.

`NC(=O)c1ncn([C@@H]2O[C@H](CO)[C@@H](O)[C@H]2O)n1` [Ribavrin, Ribavirin] gave a 50% inhibitory concentration (IC50) in the series on H1N1 virus of 37.2 µg/mL (≈ 152 µM). Also, the “body weight over 5 days” value with H1N1 influenza virus (EA extract 10 mg/kg, Ribavirbin 100 mg/kg, day 1 to day 5) was “gained weight”. For the same compound, the “lung tissue histological changes (H&E)” value in the series with H1N1 influenza virus (EA extract and Ribavirin groups compared to the infected group) is recorded as “relieved tissue consolidation”. In the series on H1N1 influenza virus (Ribavirbin 100 mg/kg i.g. once daily 4 days, model 11.58 ± 0.39, p < 0.001), the lung index came to 7.32 ± 0.39 mg/g. The same compound yielded a liver index in the series with H1N1 influenza virus (Ribavirbin 100 mg/kg, model 50.73 ± 0.58, normal 62.79 ± 1.24) of 59.60 ± 1.68 mg/g.

Regarding `O=C1Nc2ccccc2/C1=C1/Nc2ccccc2C1=O` [indirubin, reference compound], the “Iba-1 positive signals in lung tissue (macrophage recruitment)” value in series [2] is listed as “fewer positive signals”. Besides, in [4] (mouse, in vivo), the “lung edema measured as lung index” value is “minimal effect” and the “lung histological damage (H&E)” value is “no evident histological alteration”.
